Reference: patent publication US6815214B2, “Pharmaceutical uses and synthesis of diketopiperazines” (Celltech R & D, Inc., priority 2000, dated 2004)
Like-named read-outs stand apart in the source and are kept apart here.

Tests used:
[1] = target: T1, CXCR2 (Homo sapiens, UniProt P25025); assay: CXCR2 radioligand binding assay with 125I labeled IL-8 (Panlabs); conditions: for inhibition at 20 µM: letter following "II", read-out: Biological Activity II (CXCR2): extent of inhibition; for IC50: read-out: IC50 (after II, CXCR2)
T1 construct: host or cells: CHO cells
T1 sequence (P25025 1-360): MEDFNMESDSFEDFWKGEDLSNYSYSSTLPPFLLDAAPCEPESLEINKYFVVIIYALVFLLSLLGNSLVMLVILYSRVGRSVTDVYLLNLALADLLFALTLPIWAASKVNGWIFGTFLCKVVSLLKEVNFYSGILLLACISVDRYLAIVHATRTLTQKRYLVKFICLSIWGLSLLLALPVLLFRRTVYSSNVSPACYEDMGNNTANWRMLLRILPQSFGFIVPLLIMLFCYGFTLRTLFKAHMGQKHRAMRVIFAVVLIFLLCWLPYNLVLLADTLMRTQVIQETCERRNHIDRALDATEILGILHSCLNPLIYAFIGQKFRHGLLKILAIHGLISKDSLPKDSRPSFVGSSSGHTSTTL
Excerpt: This assay is a radioligand binding assay in human recombinant CHO cells with ^125I labeled IL-8 as ligand as described in The Journal of Biological Chemistry (Ahuja, S. K.; Murphy, P. M;. J. Biol. Chem. 1996, 271, 20545).

[2] = system: A549 cells; assay: Inhibition of TNF-α-induced apoptosis in A549 cells (crystal violet); type: cell-based; conditions: letter following "III"; inhibition at 20 μM
Protocol: The protocol used for determining inhibition of apoptosis in A549 cells was adopted from a system previously described (K. Last-Barney et al, J. of Immunology, 1988, 141, 527-530). Briefly, 10^5 cells in 200 μL 10% FBS/RPMI antibiotic containing culture medium were plated into 96 well round bottom culture plates and allowed to adhere for 6 hours at 37° C. in a 5% CO2 atmosphere. The media was removed and 100 μL of RPMI+1 μg/mL actinomycin-D was added to each well, followed by 100 μL of 20 μM solution of compound in 1% DMSO. This was incubated for 1 hour. […] The media was aspirated from the plates and 100 μL of 0.5% crystal violet in 20% methanol was added. After 10 minutes the plates were rinsed with water to remove excess stain, air dried, and read on a Spectramax spectrophotometer at a wavelength of 590 nm.

| SMILES | inhibition at 20 µM [1] | IC50 ([1]; unit μm [sic]) | IC50 [1] | Biological Activity III (apoptosis): extent of inhibition [2] |
| --- | --- | --- | --- | --- |
| COc1cc(OC)c(CNC(=O)Cc2ccc(CN3C(=O)[C@@H]4C[C@H](NC(=O)OCC5c6ccccc6-c6ccccc65)CN4C(=O)[C@@H]3CC(=O)O)cc2)c(OC)c1 | > 50% | 15 µM |  |  |
| COC(=O)C[C@H]1C(=O)N2C[C@@H](NC(=O)c3cnc4ccccc4c3)C[C@H]2C(=O)N1Cc1ccc(CC(=O)NCc2c(OC)cc(OC)cc2OC)cc1 | > 50% |  | 25 µM | A (A refers to >50% inhibition at 20 μM) |
